According to PMC11359915, “Rattlesnake Crotalphine Analgesic Active on Tetrodotoxin-Sensitive Na^+ Current in Mouse Dorsal Root Ganglion Neurons” (Toxins, 2024):

Columns and labels:
DRG neurons = format: cell-based, adult mouse (Swiss, Mus musculus); settings: positive control, 0.1%, 5–75 min; mean ± S.E.M., n = 4
Description: The CHO epithelial cell line was cultured as previously described. Primary cultures of DRG neurons were performed using adult female Swiss mice (Mus musculus, 8–12 weeks of age and 25–32 g body weight), purchased from Janvier Elevage (Le Genest-Saint-Isle, France) and acclimatized at the CEA animal facility for at least 48 hr before the experiments. All experimental procedures on mice were permitted by the Animal Ethics Committee of the CEA and the French General Directorate for Research and Innovation (project APAFIS#26651-2020072011192542v1, authorized for E.B. on 20 July 2020 for 5 years). […]
Cell viability was quantified by propidium iodide and trypan blue dye exclusion assays. […] The percentage of viable cells (i.e., the number of non-fluorescent cells relative to the number of total cells) was determined using the ImageJ 1.53g software (National Institutes of Health, Bethesda, MD, USA). At the end of the experiments, the total fluorescence of each well (function of the amount of propidium iodide-positive dead cells) was measured using a CLARIOstar® Plus microplate reader (BMG Labtech, Champigny-Sur-Marne, France).
The data are expressed as the means ± standard error of the mean (S.E.M.) of n different experiments. […]

[1] = system: NaV1.7 component of the TTX-sensitive Na^+ current of DRG neurons; format: cell-based, adult mouse (Swiss, Mus musculus)
hNaV1.7 = settings: cited from earlier work
hNaV1.1 = settings: ref [22],[23],[24]; cited from earlier work
hNaV1.2–1.6 and hNaV1.8 = settings: ref [22],[23],[24]; cited from earlier work
[2] = system: NaV channels and voltage-sensitive potassium (KV) channels; settings: initially NaV channels, later KV channels; ref [28],[29],[30],[31],[32]; cited from earlier work
Excerpt: (§1) To the best of our knowledge, such an effect of the crotalid peptide on cell plasma membrane constituents has never been described in the literature. The simplest explanation is that crotalphine interacts also with lipid membrane constituents since interactions between gating modifier toxins and the lipid membranes surrounding the channel have been previously evidenced. It is therefore likely that, in addition to the Na^+ channel subtype NaV1.7, the crotalid peptide targets also a second cell plasma membrane component. Further experiments are still needed to identify this second me ...

certain cells = settings: ref [28],[29],[30],[31],[32]; cited from earlier work
Excerpt: as §1

Compound: triton X-100
- decrease in viability of DRG neurons (DRG neurons): 89.1 ± 1.7%

Compound: NC1=N[C@H](O)[C@H]2[C@H]3O[C@]4(O)O[C@@H]([C@@H](O)[C@@]2(N1)[C@@H]4O)[C@]3(O)CO [TTX, tetrodotoxin]
- Na^+ current decreased to % of the initial peak amplitude [1]: 8.1 ± 5.1%
- recovery of the current after washout [1]: 83.5 ± 4.5%

Compound: ProTx-II: tarantula venom peptide, a well-known selective inhibitor of the NaV1.7 channel subtype
- decrease in the TTX-sensitive Na^+ current amplitude ([1]; 10 nM, n = 3, unpublished data): 79.2 ± 4.8%
- IC50 (hNaV1.7): 0.3 to 1.6 nM
- IC50 (hNaV1.1): 16 nM
- IC50 (hNaV1.2–1.6 and hNaV1.8): > 25 nM

Compound: crotamine: the most abundant protein in the Crotalus durissus terrificus's venom (YKQCHKKGGHCFPKEKICLPPSSDFGKMDCRWRWKCCKKGSG; UniProt Q9PWF3 23-64, looked up)
- effect on functioning of ionic channels [2]: alter the functioning of ionic channels
- effect on cell viability (certain cells): decrease the viability of certain cells
